Non-standard residues stand in square brackets, D forms with d. Residues, ends and D or L forms follow the SMILES beside them. Ahx = NCCCCCC(=O)O
Experiments:
Format in all cases: biochemical, porcine
trypsin [1] = target: T1, trypsin (Sus scrofa, UniProt P00761); test: Trypsin inhibition, end point measurements with BAPA (conjugated peptide); conditions: for Efficiency: Ki,free/Ki,app = [I]eff/[I]tot, free Ahx–Phe–Leu–Arg–COOH as reference (1.00); for Ki: end point measurements
T1 construct: purchased Sigma-Aldrich; host or cells: porcine pancreas
Protocol: Fig. 5 vi/v 0 is plotted as a function of the conjugated TiO2–Ahx–Phe–Leu–Arg–COOH (A), ZnO–Ahx–Phe–Leu–Arg–COOH (B) and WorkBeads™‐Ahx‐Phe‐Leu‐Arg‐COOH (C). […] Error bars represent standard deviation.
Kinetic parameters were obtained by mixing substrate, enzyme and conjugate in a plastic Eppendorf tube with varying concentrations of TiO2–peptide 1 0–70 μM, ZnO–peptide 1 0–60 μM and gel beads conjugated to peptide 1 0–60 μM and incubating with end‐over‐end rotation. A total of 150 µL aliquots was withdrawn at five time points for each reaction, and the reaction was stopped in 100 mM acetic acid (pH 3). Absorbance was measured at 410 nm in a UV‐1601 UV‐Vis spectrophotometer (Shimadzu, Columbia, MD, USA).
(§1) For real‐time and end point measurements, the Ki value was estimated by the graphical method of Dixon and Morrison (Eqn 1). Ki was extracted after fitting the data to Eqns (1,2) using GRAPHPAD PRISM 8 (GraphPad Software, San Diego, CA, USA). A K M of 0.82 mM was used for the calculations.(1) vi/vo=1‐([E]+[I]+Kiapp)‐[E]+[I]+Kiapp^2‐4[E][I]/2[E]
(§2) The form of Kappi varies with the type of inhibitor. For competitive inhibitors, as in the case of leupeptin, the Ki value can be calculated from Eqn (2):(2) Kiapp=Ki1+[S]/KM

trypsin [2] = target: T1, trypsin; test: Trypsin inhibition, real-time measurements of initial velocities with BAPA (free inhibitors); conditions: apparent Ki, tight-binding (Morrison) fit; 0.1 M NH4HCO3 pH 7.52, 2% (v/v) DMSO, BAPA 1 mM, trypsin 0.25 µM, KM 0.82 mM, read at 410 nm
Protocol: Fig. 4 The ratio vi/v 0 is plotted as a function of the inhibitor peptide Ahx–Phe–Leu–Arg–COOH (A) and Ahx–Leu–Leu–Arg–COOH (B). […] Error bars represent standard deviation.
Kinetic parameters were obtained by measuring initial velocities in the presence of selected concentrations of natural leupeptin (0.14–1.62 µM), oxidized leupeptin (8–127 µM), reduced leupeptin (10–413 µM) and peptides 1 and 2 (8–254 µM). All reactions were performed in 0.1 M NH4HCO3 (pH 7.52) and 2% (v/v) DMSO using concentrations of BAPA and trypsin fixed at 1 mM and 0.25 µM, respectively. The reaction was monitored at 410 nm in a Shimadzu UV‐1601 UV‐Vis spectrophotometer.
as §1, §2

trypsin [3] = target: T1, trypsin; test: Gelatin erosion method: inhibition activity of free and conjugated peptide in gelatin layer; conditions: for Rate (erosion well formation rate, linear regression): gel experiment; for Plateau (relative asymptotic plateau value, asymptotic area ratio at virtually maximal inhibition): gelatin erosion, relative area increase rate vs inhibitor concentration, fitted in GRAPHPAD PRISM 8
Description: The gelatin erosion method that simulates a surface with a protective cover layer is here used to evaluate the function of the peptide in its different conjugation states where the relative area increase rate is plotted against the increasing inhibitor concentration in Fig. 6. The curves obtained as a function of concentration for the free peptide and the TiO2‐conjugated peptide, respectively, are virtually identical. […] This may tentatively be explained by a model where the enzyme molecules, once ‘captured’ by the immobilized peptides, also interact nonspecifically with the ZnO surface, resulting in addition of binding energies and thus also cooperative binding. As has been noted earlier by us, the well area converges to an asymptotic nonzero value ‘plateau’ at high inhibitor concentration that is virtually identical for the different cases. The limit may actually be set by the size of the droplet applied and initial enzyme diffusion. However, the similar limiting values further confirm that the inhibition modes are identical for free and conjugated inhibitor. […] This is actually in accordance with the pattern observed for the ZnO conjugate. […] For details regarding the gelatin erosion method, see Fig. S3 and Table S2.
The experiments were performed as described earlier. The concentration of the free inhibitor Ahx–Phe–Leu–Arg–COOH was ranging from 5 to 50 μM, for ZnO conjugate 1–15 μM and for TiO2 conjugate 1–25 μM.
Table S2. The rates, given by the linear regression, are given below for the gel experiment for free Ahx-Phe-Leu-Arg-COOH and its conjugated state to TiO2 and ZnO.

trypsin [4] = target: T1, trypsin; test: Kinetic measurements of TiO2-peptide conjugate (Vmax, Km; Fig. S2/Table S1); conditions: trypsin with conjugate present, 0.1 M NH4HCO3 pH 7.52, trypsin 0.125 µM, 34 mg conjugate (6.06 nmol peptide/mg TiO2) per reaction
Protocol: Figure S2. Kinetic measurements of TiO2-peptide conjugate.
Table S1. Extracted values from figure S2. Experiment setup: Buffer 0.1 M NH4HCO3 pH 7.52, [Trypsin] (in eppendorf) = 0.125 µM, 34 mg TiO2-Ahx-Phe-Leu-COOH
(6.06 nmol mod. peptide/mg TiO2) in each reaction.

[5] = apparent Ki of conjugated peptide, five time points, stopped in 100 mM acetic acid pH 3, 410 nm, trypsin 0.25 μM, BAPA 1 mM, Km 0.82 mM, read-out: Ki
[6] = apparent Ki of the stored conjugate, storage time not given (conjugates stored at 4 °C), read-out: Ki stored

T1 sequence (P00761 9-231): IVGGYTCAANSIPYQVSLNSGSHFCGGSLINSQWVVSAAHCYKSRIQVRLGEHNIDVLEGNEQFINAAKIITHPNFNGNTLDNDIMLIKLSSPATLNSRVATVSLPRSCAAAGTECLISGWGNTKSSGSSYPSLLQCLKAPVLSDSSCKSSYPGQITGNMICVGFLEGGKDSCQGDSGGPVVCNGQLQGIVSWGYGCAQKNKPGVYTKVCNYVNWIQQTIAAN

Compound	Efficiency (trypsin [1])	Ki (trypsin [1]; [5]) [µM]	Ki (trypsin [1]; [6]) [µM]	Ki (trypsin [2]) [µM]	also measured
WorkBeads™‐Ahx‐Phe‐Leu‐Arg‐COOH [Ahx–Phe–Leu–Arg–COOH coupled to WorkBeads™ 40/1000 ACT agarose gel beads, 150 nmol·mL^−1 beads]	0.12	29 ± 4	53 ± 9		fraction of the conjugated peptides available for the enzyme (trypsin [1]; according to the efficiency, peptide conjugated to agarose gel beads): about 10%
CC(=O)N[C@@H](CC(C)C)C(=O)N[C@@H](CC(C)C)C(=O)N[C@H](CO)CCCNC(=N)N [reduced leupeptin]				270 ± 100	
CC(=O)N[C@@H](CC(C)C)C(=O)N[C@@H](CC(C)C)C(=O)N[C@H](C=O)CCCNC(=N)N [Leupeptin, Ac–Leu–Leu–Arg–CHO]				0.088 ± 0.008	
CC(=O)N[C@@H](CC(C)C)C(=O)N[C@@H](CC(C)C)C(=O)N[C@@H](CCCNC(=N)N)C(=O)O [oxidized leupeptin]				2.7 ± 0.1	
CC(C)C[C@H](NC(=O)[C@H](Cc1ccccc1)NC(=O)CCCCCN)C(=O)N[C@@H](CCCNC(=N)N)C(=O)O [Ahx–Phe–Leu–Arg–COOH, 6‐aminohexanoic acid (Ahx)–Phe–Leu–Arg–COOH] (H-[Ahx]FLR-OH)				3.4 ± 0.2	
ZnO–Ahx–Phe–Leu–Arg–COOH	0.77	4.4 ± 1.3	7.6 ± 1.5		Rate (erosion well formation rate, linear regression) (trypsin [3]; 1 μM inhibitor): 3.1 ± 0.5 mm^2/ μMtrypsin; Rate (erosion well formation rate, linear regression) (trypsin [3]; 5 μM inhibitor): 2.3 ± 0.50 mm^2/ μMtrypsin; Rate (erosion well formation rate, linear regression) (trypsin [3]; 10 μM inhibitor): 2.2 ± 0.4 mm^2/ μMtrypsin; Rate (erosion well formation rate, linear regression) (trypsin [3]; 15 μM inhibitor): 2.0 ± 0.5 mm^2/ μMtrypsin; Plateau (relative asymptotic plateau value, asymptotic area ratio at virtually maximal inhibition) (trypsin [3]): 0.46 ± 0.02
CC(C)C[C@H](NC(=O)CCCCCN)C(=O)N[C@@H](CC(C)C)C(=O)N[C@@H](CCCNC(=N)N)C(=O)O [Ahx–Leu–Leu–Arg–COOH] (H-[Ahx]LLR-OH)				9.5 ± 1	
TiO2–Ahx–Phe–Leu–Arg–COOH	0.32	11 ± 2	7.1 ± 1.1		Rate (erosion well formation rate, linear regression) (trypsin [3]; 1 μM inhibitor): 4.0 ± 0.4 mm^2/ μMtrypsin; Rate (erosion well formation rate, linear regression) (trypsin [3]; 5 μM inhibitor): 3.5± 0.4 mm^2/ μMtrypsin; Rate (erosion well formation rate, linear regression) (trypsin [3]; 10 μM inhibitor): 3.6 ± 0.1 mm^2/ μMtrypsin; Rate (erosion well formation rate, linear regression) (trypsin [3]; 15 μM inhibitor): 2.00 ± 0.1 mm^2/ μMtrypsin; Rate (erosion well formation rate, linear regression) (trypsin [3]; 25 μM inhibitor): 2.2 ± 0.3 mm^2/ μMtrypsin; Plateau (relative asymptotic plateau value, asymptotic area ratio at virtually maximal inhibition) (trypsin [3]): 0.42 ± 0.21; Km (trypsin [4]; no inhibitor: 2.9 ± 0.8): 6.4 ± 1.2 mM; Vmax (trypsin [4]; no inhibitor: 720 ± 100): 250 ± 30

Source: publication PMC7714073, “Inhibition properties of free and conjugated leupeptin analogues” (FEBS Open Bio, 2020)
